Laboratory results reported in ChEMBL document CHEMBL5365397, “Synthesis and biological evaluation of biotinylated ZJ-101” (Bioorg Med Chem Lett, 2023).

Columns and labels:
MCF7 = experiment: Antiproliferative activity against human MCF7 cells by Alamar Blue assay; type: functional, cell-based
HCT-116 = experiment: Growth inhibition of human HCT-116 cells measured after 48 hrs by SRB assay; type: functional, cell-based; conditions: HCT-116, 48 h
MDA-MB-231 [1] = experiment: Antiproliferative activity against human MDA-MB-231 cells by Alamar Blue assay; type: functional, cell-based
SF-295 [2] = experiment: Growth inhibition of human SF-295 cells measured after 48 hrs by SRB assay; type: functional
HT-29 = experiment: Growth inhibition of human HT-29 cells measured after 48 hrs by SRB assay; type: functional, cell-based; conditions: HT-29, 48 h
MDA-MB-231 [3] = experiment: Growth inhibition of human MDA-MB-231 cells measured after 48 hrs by SRB assay; type: functional
SF-295 [4] = experiment: Antiproliferative activity against human SF-295 cells by Alamar Blue assay; type: functional, cell-based

Structure (SMILES)	IC50 (MCF7) [nM]	IC50 (HCT-116) [nM]	IC50 (MDA-MB-231 [1]) [nM]	GI50 (SF-295 [2]) [nM]	IC50 (HT-29) [nM]	GI50 (MDA-MB-231 [3]) [nM]	IC50 (SF-295 [4]) [nM]
CC(=O)N[C@H](C)[C@@H](O)[C@@H](C)[C@@H]1OC(=O)/C=C/C=C(C)\C=C\[C@]2(C)CCC=C[C@@H]2/C=C(C)/C=C/[C@H]1C	40.8	52.7	61.1	< 10	7.5	< 10	–
CC1=C/C=C/C(=O)O[C@@H]([C@H](C)[C@H](O)[C@@H](C)NC(=O)CCOCCOCCOCCOCCNC(=O)CCCC[C@@H]2SC[C@@H]3NC(=O)N[C@@H]32)[C@H](C)/C=C/C(C)=C/[C@H]2C=CCC[C@@]2(C)\C=C\1	> 5000	–	> 5000	–	–	–	> 5000
